The text below walks through data of US20140088178A1, “COMBINATION OF ANTI-CLUSTERIN OLIGONUCLEOTIDE WITH ANDROGEN RECEPTOR ANTAGONIST FOR THE TREATMENT OF PROSTATE CANCER” (THE UNIVERSITY OF BRITISH COLUMBIA, priority 2011, published 2014).

For one data set, the system named is CRPC LNCaP xenografts. The data set can be described thus: Castration-resistant LNCaP xenograft in castrated male athymic nude mice. Type of data set: in vivo. The following applies: week 16 from start of treatment; euthanasia for tumour volume exceeding 10% of body weight. Here is the method: The effects of combination treatment on castration-resistant LNCaP tumor growth were assessed in castrated male athymic nude mice. Male athymic nude mice were inoculated with LNCaP cells in Matrigel in two sites of mouse flank lesion. […]. Custirsen (10 mg/kg/each dose) or SCRB (10 mg/kg/each dose) was injected i.p. once daily for the first week and then three times per week. […] Tumor volume was measured once per week. Serum PSA was determined weekly. PSA doubling time (PSAdt) and velocity were calculated by the log-slope method (PSAt−PSAinitial×e^mt). All animal procedures were performed according to the guidelines of the Canadian Council on Animal Care and appropriate institutional certification.
Male athymic mice (Harlan Sprague-Dawley, Inc.) were injected s.c. with 1×10^6 LNCaP cells. When tumors grow in 150 mm^3 and serum PSA was >50 ng/ml, mice are castrated. […] Each experimental group consisted of 13 mice. […] Tumor volume and serum PSA was measured as previously described (Sowery et al., 2008). All animal procedures were performed according to the guidelines of the Canadian Council on Animal Care. Each three mice xenografts were sacrificed at 7 days after start treatment and the rest were harvested the end of the study and snap-frozen in liquid nitrogen. […]

For the next data set, the system named is clusterin (CLU). The data set can be described thus: Western blot of clusterin (CLU) expression after AR pathway inhibition. Type of data set: cell-based, human. Here is the method: The immune complexes were recovered with protein-G sepharose for 2 h and then washed with radioimmunoprecipitation assay buffer (RIPA) at least thrice, centrifuged, and submitted to SDS-PAGE, followed by Western blotting. […] Cells are harvested and performed for western blot analysis.
Background: Immunoblotting shows a protein as a band on a membrane.

For data set [1], the system named is GRP78, ATF4, IRE1, CHOP and cleaved-ATF6. The data set can be described thus: ER stress marker expression after AR1. The format is cell-based. The following applies: concomitant with CLU induction. From the text:
ER stress activates a complex intracellular signaling pathway, called the unfolded protein response (UPR), which is tailored to re-establish protein homeostasis (proteostasis) by inhibiting protein translation and promoting ER-associated protein degradation via the ubiquitin-proteasome system (UPS).

Data set [2] has as its system Akt and p90Rsk phosphorylation. The data set can be described thus: Western blot of Akt and p90Rsk phosphorylation. The format is cell-based, human. Particulars: FIG. 42B. The procedure: YB-1 binds to CLU promoter leading to increased CLU expression after ER stress (Shiota et al., 2011). […]. Western blot analysis is done using phospho Akt, phospho ERK, Akt and ERK antibodies. […]. […] After 48 h treatment, western blot analysis is done using phospho Akt, phospho ERK, phospho mTOR, phospho P70S6K, Akt, ERK, mTOR and P70S6K antibodies.

The subject of data set [3] is LNCaP cells. The data set can be described thus: Autophagy induction. The format is cell-based, human.
The conditions of data set [4]: humans; cited from earlier work.
Data set [5] concerns LNCaP cells. The data set can be described thus: Flow cytometry of apoptotic sub-G1 fraction (propidium iodide staining). Type of data set: cell-based, human. The following applies: 500 nmol/L custirsen or ScrB, 10 μmol/L AR1, 48 hrs. The procedure:
After a time course exposure, cell growth was measured by crystal violet assay as previously described (cleave et al., 2005). Detection and quantitation of apoptotic cell cycle population were analyzed by flow-cytometry (Beckman Coulter Epics Elite; Beckman, Inc.) based on 2N and 4N DNA content as previously described (Lamoureux et al., 2011). For CSS condition, LNCaP cells were plated in RPMI with 5% FBS switched to CSS at the next day, and treatment was started same as FBS condition. Each assay was done in triplicate three times.
Combination treatment enhances LNCaP apoptosis in flow cytometry analysis. […] The proportion of cells in sub-G0, G0-G1, S, G2-M is determined by propidium iodide staining. […] P value represents between treatment arms and their respective controls *p<0.05, **p<0.01, ***p<0.001 (Wilcoxon matched-pairs test).
Background: A flow cytometer gives signals particle by particle.

In data set [6] the test system is AR transcriptional activity. The data set can be described thus: PSA-luciferase reporter assay of R1881 induced AR transcriptional activity. Type of data set: cell-based, human. The following applies: LNCaP cells; 500 nmol/L custirsen, 10 μmol/L AR1, 1 nmol/L R1881.
Procedure: Effect of combination treatment on AR transactivation and translocation. […] Cells were harvested, and luciferase activity was determined. Columns represent means of at least three independent experiments done in triplicate. PSA activation was normalized Renilla-luciferase activity.
LNCaP cells were seeded at a density of 5×10^4 in 12-well plates and transfected the following day with custirsen or SCRB. […] Reporter assays were normalized to Renilla and luciferase activity expressed by Firefly to Renilla ratio in arbitrary light units. All experiments were carried out in triplicate wells and repeated five times using different preparations of plasmids.
The effects of combination treatment on androgen-induced, AR-mediated gene activation were evaluated.
Another data set concerns CRPC. Particulars: combined with docetaxel chemotherapy; cited from earlier work.
The next data set concerns the target T1, AR (Homo sapiens, UniProt P10275, T878A).
T1 sequence (P10275 1-920 T878A): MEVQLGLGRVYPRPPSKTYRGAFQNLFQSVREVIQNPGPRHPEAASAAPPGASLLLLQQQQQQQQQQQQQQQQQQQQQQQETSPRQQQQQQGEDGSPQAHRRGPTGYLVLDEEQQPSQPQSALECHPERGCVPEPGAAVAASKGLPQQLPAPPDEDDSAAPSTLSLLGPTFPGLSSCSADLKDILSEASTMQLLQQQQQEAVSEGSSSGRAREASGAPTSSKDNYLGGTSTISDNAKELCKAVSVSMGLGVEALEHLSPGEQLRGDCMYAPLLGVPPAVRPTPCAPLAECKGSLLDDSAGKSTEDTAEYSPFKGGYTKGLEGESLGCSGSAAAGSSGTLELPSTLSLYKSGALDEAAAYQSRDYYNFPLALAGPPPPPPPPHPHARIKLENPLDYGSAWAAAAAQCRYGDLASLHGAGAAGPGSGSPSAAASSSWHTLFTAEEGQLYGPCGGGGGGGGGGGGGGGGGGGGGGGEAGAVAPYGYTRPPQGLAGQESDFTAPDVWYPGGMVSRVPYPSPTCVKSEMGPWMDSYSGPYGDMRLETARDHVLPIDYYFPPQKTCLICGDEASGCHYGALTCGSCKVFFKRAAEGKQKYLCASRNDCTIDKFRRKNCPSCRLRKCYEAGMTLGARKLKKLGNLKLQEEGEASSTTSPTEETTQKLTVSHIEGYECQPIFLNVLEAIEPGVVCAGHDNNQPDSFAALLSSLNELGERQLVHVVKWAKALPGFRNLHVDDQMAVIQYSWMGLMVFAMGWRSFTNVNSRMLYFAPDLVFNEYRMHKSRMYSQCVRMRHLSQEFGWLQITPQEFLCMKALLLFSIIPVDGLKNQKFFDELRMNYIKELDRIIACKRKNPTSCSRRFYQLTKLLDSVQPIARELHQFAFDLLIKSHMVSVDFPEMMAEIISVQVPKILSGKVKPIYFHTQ
The data set can be described thus: Western blot of AR protein expression. Particulars: FIG. 17: LNCaP, 500 nM custirsen 48 h, then 10 μM AR1 48 hours.

e = 2'-O-(2-methoxyethyl) (MOE); d = 2'-deoxy (DNA)

Regarding `CNC(=O)c1ccc(N2C(=S)N(c3ccc(C#N)c(C(F)(F)F)c3)C(=O)C2(C)C)cc1F` [AR1, 4-(3-(4-cyano-3-(trifluoromethyl)phenyl)-5,5-dimethyl-4-oxo-2-thioxoimidazolidin-1-yl)-2-fluoro-N-methylbenzamide], the overall survival entry in the data set on CRPC LNCaP xenografts is listed as “about 40%”. For the same compound, in the data set on clusterin (CLU) (LNCaP, 10 μmol/L for 48 hrs, 5% FBS or 5% CSS, western blot), the clusterin protein expression result was “strongly increases”. Besides, the ER stress markers result in data set [1] is recorded as “up-regulation”. For the same compound, the “Akt and p90Rsk phosphorylation” value in data set [2] is “increases”. For the same compound, the autophagy result with LNCaP cells [3] is “induces autophagy”. Further, in data set [4], the maximum tolerated dose was 240 mg/day and the side effects result is “fatigue”.

As to `CC(=O)O[C@@H]1[C@@H](OC(C)=O)[C@@H](O)[C@H](Oc2c(-c3ccc(O)cc3)oc3cc(O)cc(O)c3c2=O)O[C@H]1C` [SL101], the “effect on AR1 induced up-regulation of CLU” value in the data set on clusterin (CLU) (inhibitor added with AR1) was “abrogates”.

“ScrB: scrambled antisense oligonucleotide control, 5′-CAGCGCTGACAACAGTTTCAT-3′ (SEQ ID NO: 44) (2'-O-methoxyethyl modified control oligonucleotide, pattern not given here, further chemistry not given here)”: the “apoptosis (sub-G1 fraction)” value in the data set on LNCaP cells [5] is recorded as 15.2%.

Turning to “custirsen: antisense oligonucleotide reducing clusterin expression, CAGCAGCAGAGTCTTCATCAT (Seq. ID No.: 3), phosphorothioate backbone, 2′-O-methoxyethyl at nucleotides 1-4 and 18-21 (sugars from the 5' end e4 d13 e4, all phosphorothioate, methylation of C not given here; listed as Homo sapiens)”, the “apoptosis (sub-G1 fraction)” value in the data set on LNCaP cells [5] was 20%. The “reduction of R1881 induced AR transcriptional activity (PSA luciferase transactivation)” value in [6] was determined as 90%. In the data set on CRPC, the HR was 0.50, the “gain in overall survival” value is on record as 7 month and the reduced death rate is listed as 50%. Moreover, the “reduction of AR protein expression” value with AR was “no effect”.
